Data: ChEMBL document CHEMBL1127030, “3-Tetrahydrofuran and pyran urethanes as high-affinity P2-ligands for HIV-1 protease inhibitors” (J Med Chem, 1993)

Tests used:
[1] = target: Human immunodeficiency virus type 1 protease (Human immunodeficiency virus 1, UniProt Q72874); assay: Inhibition of HIV-1 protease
[2] = tested on: Human immunodeficiency virus 1; assay: Inhibitory concentration was evaluated to inhibit 95% of HIV-1 spread in MT4 cells

Which IC50 [1] does the source give for CC(C)(C)NC(=O)[C@@H]1C[C@@H]2CCCC[C@@H]2CN1C[C@@H](O)[C@H](Cc1ccccc1)NC(=O)O[C@H]1C=CCOC1 here?
The IC50 was 314 nM.

How did the IC50 [1] turn out when O=C(N[C@@H](Cc1ccccc1)[C@@H](O)C[C@@H](Cc1ccccc1)C(=O)N[C@H]1c2ccccc2C[C@H]1O)O[C@H]1CCOC1 was run?
The IC50 was < 0.03 nM.

And the IC95 [2]?
Its IC95 is 3 nM.

What does the source list for O=C(N[C@@H](Cc1ccccc1)[C@@H](O)C[C@@H](Cc1ccccc1)C(=O)N[C@H]1c2ccccc2C[C@H]1O)O[C@@H]1CCCOC1?
IC50 [1]: < 0.03 nM; IC95 [2]: 25 nM

How did the IC50 [1] turn out when CC(C)(C)NC(=O)[C@@H]1C[C@@H]2CCCC[C@@H]2CN1C[C@@H](O)[C@H](Cc1ccccc1)NC(=O)O[C@@H]1C=CCOC1 was run?
The IC50 was 48.9 nM.

With CC(C)(C)NC(=O)[C@@H]1C[C@@H]2CCCC[C@@H]2CN1C[C@@H](O)[C@H](Cc1ccccc1)NC(=O)O[C@@H]1CCCOC1 as the compound, how does the IC50 [1] read?
The IC50 was 308 nM.

How did the IC50 [1] turn out when CC(C)(C)NC(=O)[C@@H]1C[C@@H]2CCCC[C@@H]2CN1C[C@@H](O)[C@H](Cc1ccccc1)NC(=O)O[C@H]1CCCOC1 was run?
The IC50 was 392 nM.

How did the IC50 [1] turn out when O=C(N[C@@H](Cc1ccccc1)[C@@H](O)C[C@@H](Cc1ccccc1)C(=O)N[C@H]1c2ccccc2C[C@H]1O)O[C@H]1CCCOC1 was run?
The IC50 was < 0.03 nM.

And the IC95 [2]?
Its IC95 is 50 nM.

Which IC95 [2] does the source give for CC(C)(C)OC(=O)N[C@@H](Cc1ccccc1)[C@@H](O)C[C@@H](Cc1ccccc1)C(=O)N[C@H]1c2ccccc2C[C@H]1O here?
The IC95 was 400 nM.

Which IC50 [1] does the source give for O=C(N[C@@H](Cc1ccccc1)[C@@H](O)C[C@@H](Cc1ccccc1)C(=O)N[C@H]1c2ccccc2C[C@H]1O)O[C@@H]1CCOC1 here?
The IC50 was 0.03 nM.

What about the IC95 [2] of the same compound?
Its IC95 is 100 nM.

How did the IC50 [1] turn out when CC(C)(C)NC(=O)[C@@H]1C[C@@H]2CCCC[C@@H]2CN1C[C@@H](O)[C@H](Cc1ccccc1)NC(=O)OC(C)(C)C was run?
Its IC50 is > 3000 nM.

For O=C(N[C@@H](Cc1ccccc1)[C@@H](O)C[C@@H](Cc1ccccc1)C(=O)N[C@H]1c2ccccc2C[C@H]1O)OC1CCCC1, which IC50 [1] is on record?
Its IC50 is 0.33 nM.

And the IC95 [2]?
The IC95 was 400 nM.

How did the IC50 [1] turn out when O=C(N[C@@H](Cc1ccccc1)[C@@H](O)C[C@@H](Cc1ccccc1)C(=O)N[C@H]1c2ccccc2C[C@H]1O)OC1CCOCC1 was run?
Its IC50 is 1.22 nM.
